# Assay results from PMC6001238, “Iterative Chemical Engineering of Vancomycin Leads to Novel Vancomycin Analogs With a High in Vitro Therapeutic Index” (Frontiers in Microbiology, 2018).
# Assays:
# [1] = tested on: human T-lymphocyte (CEM) cells; test: Cytostatic activity, CEM cell proliferation; type: cell-based; conditions: mean ± SD of three experiments; highest concentration tested 250 µM; 3 days; read-out: Toxicity (IC50) CEM
# Description: (§1) Murine leukemia (L1210), human T-lymphocyte (CEM) and the human cervix carcinoma (HeLa) cell line were suspended at 300,000–500,000 cells/mL of culture medium, and 100 μL of a cell suspension was added to 100 μL of an appropriate dilution of the test compounds in wells of 96-well microtiter plates. After incubation at 37°C for 2 (L1210), 3 (CEM), or 4 (HeLa) days, the cell number was determined using a Coulter counter. The IC50 was defined per cell type as the compound concentration required to inhibit cell proliferation by 50% compared to the negative control ([Glowacka et al., 2017]).
# [2] = tested on: L1210, CEM and HeLa cell lines; test: Cytostatic activity, average or summary over L1210, CEM and HeLa; type: cell-based; conditions: average of L1210, CEM and HeLa; read-out: Toxicity (IC50) Average
# Description: as §1
# [3] = tested on: Murine leukemia (L1210) cells; test: Cytostatic activity, L1210 cell proliferation; type: cell-based; conditions: mean ± SD of three experiments; highest concentration tested 250 µM; 2 days; read-out: Toxicity (IC50) L1210
# Description: as §1
# E. faecalis VRE 53 = test: MIC, broth microdilution, vancomycin-resistant E. faecalis VRE 53 (VanA); type: cell-based, Enterococcus faecalis; conditions: for MIC: Enterococcus faecalis VRE 53 (vancomycin-resistant), read-out: MIC; for MIC-fold improvement vs. vancomycin: VRE 53, ratio of MIC of vancomycin and MIC of analogue
# Description: (§2) The minimum inhibitory concentration (MIC) was determined using the broth microdilution method according to the antimicrobial susceptibility testing standards of the clinical and laboratory standards institute ([Clinical and Laboratory Standards Institute [CLSI], 2012]). Ultrapure water and non-inoculated broth were used as controls. In one case, a final concentration of 10 μM vancomycin was included with the vancomycin analog or control antibiotic.
# E. faecalis VRE 37 = test: MIC, broth microdilution, vancomycin-resistant E. faecalis VRE 37 (VanA); type: cell-based, Enterococcus faecalis; conditions: for MIC: Enterococcus faecalis VRE 37 (vancomycin-resistant), read-out: MIC; for MIC-fold improvement vs. vancomycin: VRE 37, ratio of MIC of vancomycin and MIC of analogue
# Description: as §2
# S. aureus VRSA = test: MIC, broth microdilution, vancomycin-resistant S. aureus (VRSA); type: cell-based, Staphylococcus aureus; conditions: for MIC: Staphylococcus aureus VRSA, read-out: MIC; for MIC-fold improvement vs. vancomycin: VRSA, ratio of MIC of vancomycin and MIC of analogue
# Description: as §2
# E. faecalis VRE 29 = test: MIC, broth microdilution, vancomycin-resistant E. faecalis VRE 29 (VanA); type: cell-based, Enterococcus faecalis; conditions: for MIC: Enterococcus faecalis VRE 29 (vancomycin-resistant), read-out: MIC; for MIC-fold improvement vs. vancomycin: VRE 29, ratio of MIC of vancomycin and MIC of analogue
# Description: as §2
# MRSA KS6 = test: MIC, broth microdilution, MRSA KS6; type: cell-based, Staphylococcus aureus; conditions: for MIC-fold improvement vs. vancomycin: MRSA KS6, ratio of MIC of vancomycin and MIC of analogue; for MIC: Staphylococcus aureus MRSA KS6, read-out: MIC
# Description: as §2
# E. faecalis VSE 1 = test: MIC, broth microdilution, vancomycin-sensitive E. faecalis (VSE 1); type: cell-based, Enterococcus faecalis; conditions: for MIC: Enterococcus faecalis VSE 1 (vancomycin-sensitive), read-out: MIC; for MIC-fold improvement vs. vancomycin: VSE 1, ratio of MIC of vancomycin and MIC of analogue
# Description: as §2
# E. faecalis VRE 6 = test: MIC, broth microdilution, vancomycin-resistant E. faecalis VRE 6 (VanA); type: cell-based, Enterococcus faecalis; conditions: for MIC: Enterococcus faecalis VRE 6 (vancomycin-resistant), read-out: MIC; for MIC-fold improvement vs. vancomycin: VRE 6, ratio of MIC of vancomycin and MIC of analogue
# Description: as §2
# MRSA KS2 = test: MIC, broth microdilution, MRSA KS2; type: cell-based, Staphylococcus aureus; conditions: for MIC-fold improvement vs. vancomycin: MRSA KS2, ratio of MIC of vancomycin and MIC of analogue; for MIC: Staphylococcus aureus MRSA KS2, read-out: MIC
# Description: as §2
# S. aureus VISA/HIP5827 = test: MIC, broth microdilution, vancomycin-intermediate S. aureus VISA HIP5827; type: cell-based, Staphylococcus aureus; conditions: for MIC: Staphylococcus aureus VISA/HIP5827, read-out: MIC; for MIC-fold improvement vs. vancomycin: VISA/HIP5827, ratio of MIC of vancomycin and MIC of analogue
# Description: as §2
# MRSA KS1 = test: MIC, broth microdilution, MRSA KS1; type: cell-based, Staphylococcus aureus; conditions: for MIC-fold improvement vs. vancomycin: MRSA KS1, ratio of MIC of vancomycin and MIC of analogue; for MIC: Staphylococcus aureus MRSA KS1, read-out: MIC
# Description: as §2
# MRSA KS89 = test: MIC, broth microdilution, MRSA KS89; type: cell-based, Staphylococcus aureus; conditions: for MIC-fold improvement vs. vancomycin: MRSA KS8, ratio of MIC of vancomycin and MIC of analogue; for MIC: Staphylococcus aureus MRSA KS8, read-out: MIC
# Description: as §2
# [4] = tested on: human cervix carcinoma (HeLa) cells; test: Cytostatic activity, HeLa cell proliferation; type: cell-based; conditions: mean ± SD of three experiments; highest concentration tested 250 µM; 4 days; read-out: Toxicity (IC50) HeLa
# Description: as §1
# [5] = tested on: S. aureus VSSA (ATCC 6538); test: MIC, broth microdilution, vancomycin-sensitive S. aureus (VSSA/MSSA, ATCC 6538); type: cell-based, Staphylococcus aureus; conditions: for MIC: Staphylococcus aureus VSSA, read-out: MIC; for MIC-fold improvement vs. vancomycin: VSSA, ratio of MIC of vancomycin and MIC of analogue
# Description: as §2
SMILES,MIC (E. faecalis VRE 53),MIC-fold improvement vs. vancomycin (E. faecalis VRE 53),MIC (E. faecalis VRE 37),MIC (S. aureus VRSA),MIC-fold improvement vs. vancomycin (S. aureus VRSA),MIC (E. faecalis VRE 29),MIC-fold improvement vs. vancomycin (E. faecalis VRE 29),MIC-fold improvement vs. vancomycin (MRSA KS6),MIC (MRSA KS6),MIC (E. faecalis VSE 1),MIC-fold improvement vs. vancomycin (E. faecalis VSE 1),MIC (E. faecalis VRE 6),MIC-fold improvement vs. vancomycin (E. faecalis VRE 6),MIC-fold improvement vs. vancomycin (MRSA KS2),MIC (MRSA KS2),MIC (S. aureus VISA/HIP5827),MIC-fold improvement vs. vancomycin (S. aureus VISA/HIP5827),IC50 [1],IC50 [2],IC50 [3],also measured
CNC(CC(C)C)C(=O)NC1C(=O)NC(CC(N)=O)C(=O)NC2C(=O)NC3C(=O)NC(C(=O)NC(C(=O)NCCCNC(=O)c4ccc(C(C)(C)C)cc4)c4cc(O)cc(O)c4-c4cc3ccc4O)C(O)c3ccc(c(Cl)c3)Oc3cc2cc(c3OC2OC(CO)C(O)C(O)C2OC2CC(C)(N)C(O)C(C)O2)Oc2ccc(cc2Cl)C1O (stereo not shown) [Vanc-73],25 µM,16,25 µM,6.25 µM,16,12.5 µM,32,2,0.39 µM,0.78 µM,2,6.25 µM,32,2,0.39 µM,1.56 µM,4,130 ± 6 µM,106 µM,108 ± 42 µM,MIC-fold improvement vs. vancomycin (E. faecalis VRE 37): 16; MIC-fold improvement vs. vancomycin (MRSA KS1): 1; MIC (MRSA KS1): 0.78 µM; MIC-fold improvement vs. vancomycin (MRSA KS89): 2; MIC (MRSA KS89): 0.39 µM; IC50 [4]: 81 ± 6 µM; MIC [5]: 0.78 µM; MIC-fold improvement vs. vancomycin [5]: 1
CNC(CC(C)C)C(=O)NC1C(=O)NC(CC(N)=O)C(=O)NC2C(=O)NC3C(=O)NC(C(=O)NC(C(=O)NCC(=O)Nc4ccc(C=Cc5ccc(N)cc5)cc4)c4cc(O)cc(O)c4-c4cc3ccc4O)C(O)c3ccc(c(Cl)c3)Oc3cc2cc(c3OC2OC(CO)C(O)C(O)C2OC2CC(C)(N)C(O)C(C)O2)Oc2ccc(cc2Cl)C1O (stereo not shown) [Vanc-58],25 µM,16,12.5 µM,0.78 µM,128,12.5 µM,32,1,0.78 µM,0.78 µM,2,6.25 µM,32,1,0.78 µM,1.56 µM,4,197 ± 75 µM,191 µM,> 250 µM,MIC-fold improvement vs. vancomycin (MRSA KS1): 0.5; MIC (MRSA KS1): 1.56 µM; MIC-fold improvement vs. vancomycin (MRSA KS89): 1; MIC (MRSA KS89): 0.78 µM; IC50 [4]: 125 ± 57 µM; MIC [5]: 0.78 µM; MIC-fold improvement vs. vancomycin [5]: 1
CN[C@H](CC(C)C)C(=O)N[C@H]1C(=O)N[C@@H](CC(N)=O)C(=O)N[C@H]2C(=O)N[C@H]3C(=O)N[C@H](C(=O)N[C@H](C(=O)NCC(=O)Nc4ccc(OC)c(OC)c4)c4cc(O)cc(O)c4-c4cc3ccc4O)[C@H](O)c3ccc(c(Cl)c3)Oc3cc2cc(c3O[C@@H]2O[C@H](CO)[C@@H](O)[C@H](O)[C@H]2O[C@H]2C[C@](C)(N)[C@H](O)[C@H](C)O2)Oc2ccc(cc2Cl)[C@H]1O [Vanc-7],12.5 µM,32,12.5 µM,12.5 µM,8,12.5 µM,32,1,0.78 µM,0.78 µM,2,12.5 µM,16,2,0.39 µM,0.78 µM,8,> 250 µM,> 250 µM,> 250 µM,MIC-fold improvement vs. vancomycin (E. faecalis VRE 37): 64; MIC-fold improvement vs. vancomycin (MRSA KS1): 1; MIC (MRSA KS1): 0.78 µM; MIC-fold improvement vs. vancomycin (MRSA KS89): 1; MIC (MRSA KS89): 0.78 µM; IC50 [4]: > 250 µM; MIC [5]: 0.78 µM; MIC-fold improvement vs. vancomycin [5]: 1

# The next lines start with results.
MIC (E. faecalis VRE 53),MIC-fold improvement vs. vancomycin (E. faecalis VRE 53),MIC (E. faecalis VRE 37),MIC (S. aureus VRSA),MIC-fold improvement vs. vancomycin (S. aureus VRSA),MIC (E. faecalis VRE 29),MIC-fold improvement vs. vancomycin (E. faecalis VRE 29),MIC-fold improvement vs. vancomycin (MRSA KS6),MIC (MRSA KS6),MIC (E. faecalis VSE 1),MIC-fold improvement vs. vancomycin (E. faecalis VSE 1),MIC (E. faecalis VRE 6),MIC-fold improvement vs. vancomycin (E. faecalis VRE 6),MIC-fold improvement vs. vancomycin (MRSA KS2),MIC (MRSA KS2),MIC (S. aureus VISA/HIP5827),MIC-fold improvement vs. vancomycin (S. aureus VISA/HIP5827),SMILES,IC50 [1],IC50 [2],IC50 [3],also measured
6.25 µM,64,6.25 µM,1.56 µM,64,6.25 µM,64,4,0.20 µM,0.78 µM,2,3.13 µM,64,4,0.20 µM,0.78 µM,8,CNC(CC(C)C)C(=O)NC1C(=O)NC(CC(N)=O)C(=O)NC2C(=O)NC3C(=O)NC(C(=O)NC(C(=O)NCC(=O)Nc4ccc(C#CC5CCCC5)cc4)c4cc(O)cc(O)c4-c4cc3ccc4O)C(O)c3ccc(c(Cl)c3)Oc3cc2cc(c3OC2OC(CO)C(O)C(O)C2OC2CC(C)(N)C(O)C(C)O2)Oc2ccc(cc2Cl)C1O (stereo not shown) [Vanc-69],29 µM,90 µM,185 ± 93 µM,MIC-fold improvement vs. vancomycin (E. faecalis VRE 37): 64; MIC-fold improvement vs. vancomycin (MRSA KS1): 1; MIC (MRSA KS1): 0.78 µM; MIC-fold improvement vs. vancomycin (MRSA KS89): 4; MIC (MRSA KS89): 0.20 µM; IC50 [4]: 55 ± 37 µM; MIC [5]: 0.78 µM; MIC-fold improvement vs. vancomycin [5]: 1
50 µM,8,25 µM,12.5 µM,8,25 µM,16,0.25,3.13 µM,0.78 µM,2,12.5 µM,16,1,0.78 µM,1.56 µM,4,CN[C@H](CC(C)C)C(=O)N[C@H]1C(=O)N[C@@H](CC(N)=O)C(=O)N[C@H]2C(=O)N[C@H]3C(=O)N[C@H](C(=O)N[C@H](C(=O)NCC(=O)Nc4ccc(Cl)cn4)c4cc(O)cc(O)c4-c4cc3ccc4O)[C@H](O)c3ccc(c(Cl)c3)Oc3cc2cc(c3O[C@@H]2O[C@H](CO)[C@@H](O)[C@H](O)[C@H]2O[C@H]2C[C@](C)(N)[C@H](O)[C@H](C)O2)Oc2ccc(cc2Cl)[C@H]1O [Vanc-44],≥ 250 µM,203 µM,≥ 250 µM,MIC-fold improvement vs. vancomycin (E. faecalis VRE 37): 16; MIC-fold improvement vs. vancomycin (MRSA KS1): 1; MIC (MRSA KS1): 0.78 µM; MIC-fold improvement vs. vancomycin (MRSA KS89): 1; MIC (MRSA KS89): 0.78 µM; IC50 [4]: 108 ± 38 µM; MIC [5]: 0.78 µM; MIC-fold improvement vs. vancomycin [5]: 1
